Experiments:
[1] = molecular target: T1, Pseudomonas aeruginosa single-stranded DNA-binding protein (PaSSB) (Pseudomonas aeruginosa, UniProt P40947); experiment: X-ray crystal structure of the complex, […] Å; parameters: gene ssb; recombinant PaSSB; amino acids 114–165 not observed in the structure
T1 sequence (P40947 2-165): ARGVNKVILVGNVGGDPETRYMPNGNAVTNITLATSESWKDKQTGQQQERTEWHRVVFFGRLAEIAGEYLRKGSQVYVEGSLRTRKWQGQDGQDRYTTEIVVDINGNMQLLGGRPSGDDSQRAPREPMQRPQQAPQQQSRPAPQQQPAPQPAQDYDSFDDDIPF

[2] = molecular target: T1, Pseudomonas aeruginosa single-stranded DNA-binding protein (PaSSB); experiment: EMSA, inhibition of PaSSB binding to biotin-labeled dT35 ssDNA; type: biochemical; parameters: gene ssb; purified recombinant PaSSB
[3] = molecular target: PaSSB (single-stranded DNA-binding protein) (Pseudomonas aeruginosa, UniProt P40947 1-165); experiment: EMSA; no flavonol; protein concentration at 50% bound; EMSA: 40 mM Tris-HCl pH 7.5, 50 mM NaCl, 37 °C 60 min, DNA 30 fmol/uL, PaSSB 0-5 uM; 8% native PAGE in TBE; flavonols dissolved in 10% DMSO; settings: protein: recombinant; chain copies: 4; label: biotin (3' in Results, 5' in Methods); single strand

O=c1c(O)c(-c2ccc(O)c(O)c2)oc2cc(O)cc(O)c12 [quercetin]
X-ray crystal structure of the complex, 2.32 Å [1]: The electron density of quercetin was well-defined and indicated the presence of quercetin in the structure of PaSSB

O=c1c(O)c(-c2cc(O)c(O)c(O)c2)oc2cc(O)cc(O)c12 [myricetin]
IC50 [2]: 2800 ± 400 nM

B1: dT35 (ssDNA)
DNA: TTTTTTTTTTTTTTTTTTTTTTTTTTTTTTTTTTT
apparent K (half saturation) [3]: 548 ± 36 nM

— PMC8775380, “A Complexed Crystal Structure of a Single-Stranded DNA-Binding Protein with Quercetin and the Structural Basis of Flavonol Inhibition Specificity” (International Journal of Molecular Sciences, 2022)
